Assays:
mice [1] = experiment: Activity on the spontaneous motility in mice (inhibition, photoelectric barriers, Friebel, Sommer and Varadan); type: in vivo, SPF-NMRI-mice, female; conditions: Mus musculus, po, read-out: ED50 (50% inhibition of spontaneous motility)
Experimental: 1. Activity on the spontaneous motility in mice:
The inhibition of spontaneous motility was determined with the aid of photoelectric barriers using an adaption of the method of Friebel, Sommer and Varadan (Arzneimittelforschung 9, 126 (1959)). SPF-NMRI-mice from our own breeding colony, having a body weight between 20 and 26 gm, were used. The number of interruptions in the flow of light was measured by ten photoelectric cells uniformly distributed in the bottom of a cylindrical cage, 25 cm in diameter, using a counting device. Thus, the spontaneous motility was registered as the animals moved over the bottom of the cage. 5 female mice were placed in each cage and their activity after application of the substance was measured for different periods of time relative to control mice. The present decrease in motility observed after application of various dosages relative to sham treated control animals was determined by graphical extrapolation, so that the dosage necessary for a 50% inhibition of spontaneous motility (ED50) could be obtained: […]

mice [2] = experiment: Muscle relaxing and sedative activity in mice (slowly rotating wire cylinders, Young and Lewis); type: in vivo, NMRI-mice, female; conditions: Mus musculus, po, read-out: ED50 (50% of the animals fall out of rotating cylinder)
Experimental: 2. Muscle relaxing and sedative activity in mice:
The muscle relaxing and sedative activity was tested according to the method of Young and Lewis (Science 105, 368 (1947)) with female NMRI-mice of a specific breed having a body weight of from 20 to 26 gm. The test apparatus comprises slowly turning wire cylinders, sloped for 30° against the vertical line (length: 43 cm; diameter: 22 cm; mesh-size of the wire netting: 0.6 cm). After peroral administration of a suspension of the substance under test in 1% tylose suspension to groups of 10 mice/dose, their bearing in the slowly rotating cylinders (2 rotations/minute) was observed and was compared with a control group. The dose (ED50) which caused 50% of the animals to fall out after certain test times was determined graphically: […]

[3] = Acute Toxicity (oral, Litchfield and Wilcoxon); type: in vivo; conditions: mouse, in vivo, po; mice; death within 14 days after application
Experimental: (§1) The acute toxicity was determined after oral administration to groups of 10 mice (sex ratio 1:1) from our own breeding colony.

mice [4] = experiment: Acute Toxicity (oral, Litchfield and Wilcoxon); type: in vivo; conditions: p.o., within 14 days, printed beside LD50 >3200 mgm/kg
Experimental: as §1

Row | SMILES | ED50 (mice [1]; after 30-45 minutes) [mg/kg] | ED50 (mice [1]; after 90-105 minutes) [mg/kg] | ED50 (mice [1]; after 150-165 minutes) [mg/kg] | ED50 (mice [2]; after 30-60 minutes) [mg/kg] | ED50 (mice [2]; after 90-120 minutes) [mg/kg] | ED50 (mice [2]; after 210-240 minutes) [mg/kg] | ED50 (mice [2]; after 270-300 minutes) [mg/kg] | LD50 at 336 h [3] [mg/kg] | animals died (mice [4])
1 | CCC(C)c1ccc([C@]2(O)C(C)(C)[C@@H](N3CCN(c4ccccc4)CC3)C2(C)C)cc1 (stereo partly shown) [O] | 9 | 3 | 2 | 1 | 1 | 2 | 1 | 800 | 
2 | CCC(C)c1ccc([C@]2(O)C(C)(C)[C@@H](N3CCN(c4ccccn4)CC3)C2(C)C)cc1 (stereo partly shown) [L] | 7 | 1 | 1 | 5 | 4 | 2 | 1 | 162 | 
3 | CCCCc1ccc([C@]2(O)C(C)(C)[C@@H](N3CCN(c4ccccc4)CC3)C2(C)C)cc1 [Q] | 34 | > 3 | 4 | > 200 | 22 | 8 | 8 |  | 
4 | CC(C)(C)c1ccc([C@]2(O)C(C)(C)[C@@H](N3CCN(c4ccccc4)CC3)C2(C)C)cc1 [K] | 15 | 3 | 2 | 48 | 8 | 6 | 1 |  | 
5 | CC(C)Cc1ccc([C@]2(O)C(C)(C)[C@@H](N3CCN(c4ccccn4)CC3)C2(C)C)cc1 [M] | 9 | > 3 | 0.4 | 4 | 4 | 3 | 2 |  | 
6 | CC1(C)[C@H](N2CCN(c3ccccn3)CC2)C(C)(C)[C@@]1(O)c1cccc(Cl)c1 [R] | > 25 | 12 | 13 | 46 | 8 | 8 | 11 |  | 
7 | CC1(C)[C@H](N2CCN(c3ccc(O)cc3)CC2)C(C)(C)[C@@]1(O)c1ccc(O)cc1 [E] | 5 | 5 | < 2.5 | 10 | 13 | 9 | 3 | > 3200 | 0 out of 10
8 | CC1(C)[C@H](N2CCN(c3ccccn3)CC2)C(C)(C)[C@@]1(O)c1ccc(O)cc1 [A] | 7.5 | 11 | 6 | 5.5 | 7.5 | 8.5 | 7.5 | 338 | 
9 | CC1(C)[C@H](N2CCN(c3ccccc3)CC2)C(C)(C)[C@@]1(O)c1ccc(O)cc1 [B] | > 50 | 3 | 4 | 26 | 11 | 6 | 5.5 | 1340 | 
10 | COc1ccc(N2CCN([C@H]3C(C)(C)[C@](O)(c4ccc(O)cc4)C3(C)C)CC2)cc1 [C] | 11 | 7.5 | 6 | 20 | 16 | 34 | 15.5 | > 6400 | 
11 | CC(C)c1ccc([C@]2(O)C(C)(C)[C@@H](N3CCN(c4ccccc4)CC3)C2(C)C)cc1 [F] | 95 | 5 | 2 | 29 | 4 | 2 | 3 | > 800 | 
12 | CC(C)c1ccc([C@]2(O)C(C)(C)[C@@H](N3CCN(c4ccccn4)CC3)C2(C)C)cc1 [G] | 7 | 3 | 5 | 11 | 8 | 3 | 8 | 118 | 
13 | CCCCc1ccc([C@]2(O)C(C)(C)[C@@H](N3CCN(c4ccccn4)CC3)C2(C)C)cc1 [P] | 9 | 3 | 2 | 15 | 4 | 3 | 6 |  | 
14 | CC(C)(C)c1ccc([C@]2(O)C(C)(C)[C@@H](N3CCN(c4ccccn4)CC3)C2(C)C)cc1 [I] | 16 | 3 | 3 | 16 | 10 | 17 | 14 |  | 
15 | CC1(C)[C@H](N2CCN(c3ccccn3)CC2)C(C)(C)[C@@]1(O)c1ccc(Cl)cc1 [H] | > 13 | 31 | > 13 | 13 | 22 | 19 | 15 | 442 | 
16 | COc1ccc([C@]2(O)C(C)(C)[C@@H](N3CCN(c4ccccc4)CC3)C2(C)C)cc1OC [D] | 26 | 22 | 3 | > 40 | 32 | 16 | 14 | 2900 | 
17 | CC(C)Cc1ccc([C@]2(O)C(C)(C)[C@@H](N3CCN(c4ccccc4)CC3)C2(C)C)cc1 [N] | 8 | 2 | 1 | 65 | 3 | 2 | 3 |  | 
